# From PubChem BioAssay AID2060498 (Molecular Pharmacology Branch, DTP, NCI, 2025)
# “And” between values parts separate entries of the source, which are not always exact repeats. Equal values may be shown once.
# System: 171881-019-R-J1-PDC tumor spheroids, viability
# Assay: Anticancer human tumor 171881-019-R-J1-PDC patient-derived invasive breast carcinoma cell line growth inhibition [GQUAD]
# Details: spheroids with HUVEC and MSC; for viability, T/C: stronger effect = lower value
# Description: DNA G-quadruplex Stabilizer Agents in Combinations in Complex Spheroids
# A high-throughput screen of multi-cell type tumor spheroids was designed to identify active combinations of DNA G-quadruplex stabilizer agents and targeted small molecules. Complex spheroids include a stromal component modeled by human endothelial cells (HUVEC) and fibroblasts modeled by human mesenchymal stem cells (MSCs). The concentration ranges selected for each drug and investigational agent were based upon clinically achievable concentrations if the clinical Cmax of the agent was known.
# Compounds. The drugs and investigational agents: pidnarulex (CX-5461; NSC782164), APTO-253 (NSC789042), BRACO-19 (NSC847499), peposertib (NSC802822), ceralasertib (NSC780249), elimusertib (NSC800525), camonsertib (NSC841442), AZD-1390 (NSC803789), olaparib (NSC753686), talazoparib (NSC767125), ART-558 (NSC835418), sotorasib (NSC818433), MRTX-1133 (NSC836407), SN-38 (NSC673596), topotecan (NSC609699), etoposide (NSC141540), doxorubicin (NSC123127), gemcitabine (NSC613327), 5-fluorouracil (NSC19893), paclitaxel (NSC125973), vemurafenib (NSC761431), panobinostat (NSC761190), R-306465 (JNJ-16241199; NSC773264), adavosertib (NSC754352), TP-3654 (NSC805149), carboplatin (NSC241240), KSQ-4279 (NSC840948), and staurosporine (NSC755774) were obtained from the National Cancer Institute (NCI) Developmental Therapeutics Program Chemical Repository (34). The FDA-approved anticancer drug set is available from the NCI Developmental Therapeutics Program. […] The stock solutions were prepared in dimethyl sulfoxide (DMSO, Sigma-Aldrich, St. Louis, MO, cat. D2650) at 800-fold the tested concentration and stored at -70 degrees C prior to their use. All drugs and investigational agents were tested over a range starting from a high concentration at or near the clinical Cmax and decreasing in half-log increments. If the clinical Cmax for an agent had not been determined, the highest concentration tested was 10 microM.
# 2.3 Cell Culture. All cells were maintained in an incubator at 37 degrees C and 5% CO2 with 95% humidity. The PDC lines were cultured according to standard operating procedures established by the NCI PDMR. All PDCs were thawed and cultured in Matrigel-coated flasks prepared with a working solution of 1X Ham's F-12 nutrient mix, without supplementation (Invitrogen, cat. 11765054), 100 U/mL penicillin-streptomycin (Invitrogen, cat. 15140122), and 2.5% Matrigel (Corning Inc., cat. 354248) for the first three passages. The 857933-349-R-J2-PDC line was cultured in 6C/Colon 1B media, which includes advanced DMEM/F-12 (Thermo Fisher Scientific, cat. 12634028), 10 mM HEPES (Thermo Fisher Scientific, cat. 15630080), 1X GlutaMAX supplement (Thermo Fisher Scientific, cat. 35050061), 0.1 mg/mL primocin (InvivoGen, cat. ant-pm-2), 10% defined fetal bovine serum, heat inactivated (HyClone Laboratories Inc., cat. SH30070.03HI), 50% L-WRN conditioned media (ATCC, cat. CRL-3276), 1.25 mM N-Acetyl-L-cysteine (Sigma-Aldrich, cat. A9165), 10 mM nicotinamide (Sigma-Aldrich, cat. N0636), 1X B-27 supplement (Thermo Fisher Scientific, cat. 17504044), 1X N-2 supplement (Thermo Fisher Scientific, cat. 17502048), 10 microM Y-27632 dihydrochloride (Tocris Bioscience, cat. 1254), and 50 ng/mL human EGF recombinant protein (Thermo Fisher Scientific, cat. PHG0311). The 485176-168-R4-J1-PDC line was cultured in Panc media, which includes all 6C/Colon 1B media components plus 100 ng/mL human FGF-10 (Thermo Fisher Scientific, cat. 100-26), 500 nM SB-431542 (Selleckchem, cat. S1067), and gastrin (Tocris, cat. 3006).
# […]
# [1] = curve of first compound, second compound 0.0316 µM
# [2] = curve of first compound, second compound 0.1 µM
# [3] = curve of first compound, second compound 0.316 µM
# [4] = curve of first compound, second compound 1 µM
# [5] = curve of first compound, second compound 3.16 µM
# [6] = curve of first compound, second compound 10 µM
# [7] = second compound 0.0316 µM, first compound 0.0316 µM
# [8] = second compound 0.0316 µM, first compound 0.1 µM
# [9] = second compound 0.0316 µM, first compound 0.316 µM
# [10] = second compound 0.0316 µM, first compound 1 µM
# [11] = second compound 0.0316 µM, first compound 3.16 µM
# [12] = second compound 0.0316 µM, first compound 10 µM
# [13] = second compound 0.1 µM, first compound 0.0316 µM
# [14] = second compound 0.1 µM, first compound 0.1 µM
# [15] = second compound 0.1 µM, first compound 0.316 µM
# [16] = second compound 0.1 µM, first compound 1 µM
# [17] = second compound 0.1 µM, first compound 3.16 µM
# [18] = second compound 0.1 µM, first compound 10 µM
# [19] = second compound 0.316 µM, first compound 0.0316 µM
# [20] = second compound 0.316 µM, first compound 0.1 µM
# [21] = second compound 0.316 µM, first compound 0.316 µM
# [22] = second compound 0.316 µM, first compound 1 µM
# [23] = second compound 0.316 µM, first compound 3.16 µM
# [24] = second compound 0.316 µM, first compound 10 µM
# [25] = second compound 1 µM, first compound 0.0316 µM
# [26] = second compound 1 µM, first compound 0.1 µM
# [27] = second compound 1 µM, first compound 0.316 µM
# [28] = second compound 1 µM, first compound 1 µM
# [29] = second compound 1 µM, first compound 3.16 µM
# [30] = second compound 1 µM, first compound 10 µM
# [31] = second compound 3.16 µM, first compound 0.0316 µM
# [32] = second compound 3.16 µM, first compound 0.1 µM
# [33] = second compound 3.16 µM, first compound 0.316 µM
# [34] = second compound 3.16 µM, first compound 1 µM
# [35] = second compound 3.16 µM, first compound 3.16 µM
# [36] = second compound 3.16 µM, first compound 10 µM
# [37] = second compound 10 µM, first compound 0.0316 µM
# [38] = second compound 10 µM, first compound 0.1 µM
# [39] = second compound 10 µM, first compound 0.316 µM
# [40] = second compound 10 µM, first compound 1 µM
# [41] = second compound 10 µM, first compound 3.16 µM
# [42] = second compound 10 µM, first compound 10 µM
# 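Note: spheroids exposed to compounds for 7 days.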
# 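Throughout, for viability, T/C: 100% = DMSO vehicle control viability.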
smiles,measurement,setting,value
C=CCn1c(=O)c2cnc(Nc3ccc(N4CCN(C)CC4)cc3)nc2n1-c1cccc(C(C)(C)O)n1,"viability, T/C",compound 0.0316 µM,101% and 105% (2×)
same,"viability, T/C",compound 0.1 µM,80.9% and 102% and 89.4%
same,"viability, T/C",compound 0.316 µM,76.6% and 92% and 76.5%
same,"viability, T/C",compound 1 µM,35.9% (2×) and 39.2%
same,"viability, T/C",compound 3.16 µM,18.3% and 21.7% and 21.2%
same,"viability, T/C",compound 10 µM,23.2% and 23.1% and 21.7%
same,IC50,curve of compound,660 nM and 789 nM and 669 nM
O=C(NO)c1cnc(N2CCN(S(=O)(=O)c3ccc4ccccc4c3)CC2)nc1 + Cc1[nH]c2ccc(F)cc2c1-c1nc2c3cccnc3c3ncccc3c2[nH]1,IC50,[1],348 nM
same,IC50,[2],410 nM
same,IC50,[3],341 nM
same,IC50,[4],148 nM
same,IC50,[5],< 31.6 nM
same,IC50,[6],< 31.6 nM
same,"viability, T/C",[7],93.7%
same,"viability, T/C",[8],83.3%
same,"viability, T/C",[9],55%
same,"viability, T/C",[10],1.74%
same,"viability, T/C",[11],0.09%
same,"viability, T/C",[12],0.15%
same,"viability, T/C",[13],88.4%
same,"viability, T/C",[14],78.7%
same,"viability, T/C",[15],63.8%
same,"viability, T/C",[16],2.75%
same,"viability, T/C",[17],0.09%
same,"viability, T/C",[18],0.11%
same,"viability, T/C",[19],73.3%
same,"viability, T/C",[20],65.3%
same,"viability, T/C",[21],53.4%
same,"viability, T/C",[22],2.53%
same,"viability, T/C",[23],0.14%
same,"viability, T/C",[24],0.21%
same,"viability, T/C",[25],60.2%
same,"viability, T/C",[26],49.3%
same,"viability, T/C",[27],41.2%
same,"viability, T/C",[28],1.79%
same,"viability, T/C",[29],0.34%
same,"viability, T/C",[30],0.4%
same,"viability, T/C",[31],7.54%
same,"viability, T/C",[32],5.44%
same,"viability, T/C",[33],2.89%
same,"viability, T/C",[34],0.17%
same,"viability, T/C",[35],0.14%
same,"viability, T/C",[36],0.28%
same,"viability, T/C",[37],34.9%
same,"viability, T/C",[38],31.9%
same,"viability, T/C",[39],24.6%
same,"viability, T/C",[40],0.85%
same,"viability, T/C",[41],0.2%
same,"viability, T/C",[42],0.32%
CC(C)n1c(=O)n(C)c2cnc3cc(F)c(-c4ccc(OCCCN5CCCCC5)nc4)cc3c21 + Cc1[nH]c2ccc(F)cc2c1-c1nc2c3cccnc3c3ncccc3c2[nH]1,IC50,[1],3360 nM
same,IC50,[2],3350 nM
same,IC50,[3],2420 nM
same,IC50,[4],2310 nM
same,IC50,[5],< 31.6 nM
same,IC50,[6],362 nM
same,"viability, T/C",[7],103%
same,"viability, T/C",[8],94.3%
same,"viability, T/C",[9],95.4%
same,"viability, T/C",[10],84.7%
same,"viability, T/C",[11],51.1%
same,"viability, T/C",[12],22.8%
same,"viability, T/C",[13],97.3%
same,"viability, T/C",[14],104%
same,"viability, T/C",[15],93.4%
same,"viability, T/C",[16],79.8%
same,"viability, T/C",[17],51.7%
same,"viability, T/C",[18],23.8%
same,"viability, T/C",[19],95.9%
same,"viability, T/C",[20],93.2%
same,"viability, T/C",[21],64.5%
same,"viability, T/C",[22],67.8%
same,"viability, T/C",[23],50%
same,"viability, T/C",[24],21.9%
same,"viability, T/C",[25],89.7%
same,"viability, T/C",[26],75.5%
same,"viability, T/C",[27],84.8%
same,"viability, T/C",[28],68%
same,"viability, T/C",[29],43.2%
same,"viability, T/C",[30],26.9%
same,"viability, T/C",[31],28.7%
same,"viability, T/C",[32],29.2%
same,"viability, T/C",[33],23.4%
same,"viability, T/C",[34],23.3%
same,"viability, T/C",[35],19.1%
same,"viability, T/C",[36],12%
same,"viability, T/C",[37],65.7%
same,"viability, T/C",[38],49.8%
same,"viability, T/C",[39],52.4%
same,"viability, T/C",[40],43.4%
same,"viability, T/C",[41],34.3%
same,"viability, T/C",[42],16.5%
C#Cc1c(F)ccc2cc(O)cc(-c3ncc4c(N5CC6CCC(C5)N6)nc(OCC56CCCN5CC(F)C6)nc4c3F)c12 (stereo not given) + Cc1[nH]c2ccc(F)cc2c1-c1nc2c3cccnc3c3ncccc3c2[nH]1,IC50,[1],599 nM
same,IC50,[2],573 nM
same,IC50,[3],282 nM
same,IC50,[4],44.9 nM
same,IC50,[5],< 31.6 nM
same,IC50,[6],< 31.6 nM
same,"viability, T/C",[7],103%
same,"viability, T/C",[8],69.3%
same,"viability, T/C",[9],60.6%
same,"viability, T/C",[10],42.9%
same,"viability, T/C",[11],24.6%
same,"viability, T/C",[12],7.54%
same,"viability, T/C",[13],92.8%
same,"viability, T/C",[14],75.1%
same,"viability, T/C",[15],59%
same,"viability, T/C",[16],41.2%
same,"viability, T/C",[17],25.1%
same,"viability, T/C",[18],6.93%
same,"viability, T/C",[19],82.7%
same,"viability, T/C",[20],62.3%
same,"viability, T/C",[21],46.7%
same,"viability, T/C",[22],31%
same,"viability, T/C",[23],30%
same,"viability, T/C",[24],4.2%
same,"viability, T/C",[25],55.6%
same,"viability, T/C",[26],39.8%
same,"viability, T/C",[27],36.8%
same,"viability, T/C",[28],23.4%
same,"viability, T/C",[29],22.9%
same,"viability, T/C",[30],0.29%
same,"viability, T/C",[31],6.7%
same,"viability, T/C",[32],3.48%
same,"viability, T/C",[33],3.47%
same,"viability, T/C",[34],2.21%
same,"viability, T/C",[35],1.89%
same,"viability, T/C",[36],0.17%
same,"viability, T/C",[37],23.8%
same,"viability, T/C",[38],27.4%
same,"viability, T/C",[39],15.8%
same,"viability, T/C",[40],15%
same,"viability, T/C",[41],6.1%
same,"viability, T/C",[42],0.16%
COc1ccc([C@@H](O)c2cc(-c3ncnc4cc(N5CCOCC5)ccc34)c(F)cc2Cl)nn1,"viability, T/C",compound 0.0316 µM,82.4% and 94.3% and 101%
same,"viability, T/C",compound 0.1 µM,85.4% and 83% and 76.8%
same,"viability, T/C",compound 0.316 µM,72.4% and 72.6% and 69.2%
same,"viability, T/C",compound 1 µM,46.7% and 35.9% and 46.9%
same,"viability, T/C",compound 3.16 µM,13.4% and 7.19% and 13.3%
same,"viability, T/C",compound 10 µM,5.21% and 1.35% and 5.78%
same,IC50,curve of compound,838 nM and 629 nM and 684 nM
